For series [1] the following is noted: cited from earlier work.
Series [2] has as its system RMA tumor. As to the kind of experiment: RMA tumor graft in C57/BL6 mice. Type of series: in vivo, mouse. As for the experimental part: C57/BL6 mice were implanted subcutaneously in the right dorsal flank region with RMA (1×10^6 cells). One day after grafting, Roc-Q (1 mg/kg body weight, dissolved in DMSO and diluted in olive oil) was administered by intraperitoneal injection (i.p.) as indicated in the figure legend. The control group was treated in an analogous manner with the vehicle. The tumor size was measured with a micrometer caliper at the indicated times and the tumor volume (V) was calculated by the formula V=(a^2×b)/2, where “a” is the width and “b” is the length in mm (Mattern et al., 1998). All protocols using and maintaining animals were approved by the German Animal Protection Authority (Office Regierungspräsidium Karlsruhe). Treated and control animals were compared for differences in tumor growth after end of treatment using the non-parametric method in a one-sided statistical test at the significance level of 0.05 (Koziol et al., 1981).
To investigate whether the effect of Roc on activation-induced cell death is also occurred in vivo, RMA cells were grafted subcutaneously into the C57/BL6 mice. One day after xenografting, the mice were randomly separated into four groups (each group contains 5 mice). One group with no treatment was taken as a control, and the other three groups received Con A, Roc-Q, or a combination of Roc-Q and Con A, respectively, three times per week by intraperitoneal injection (i.p.). Two independent experiments were carried out. In the first experiment, RMA (10×10^5 cells)-grafted mice were treated with or without 1 mg/kg body weight of Roc-Q in the presence or absence of Con A as described in FIG. 4A. No toxicity was seen up to a dose of 10 mg/kg body weight (Lee et al., 1998). Acute toxicity was reported with an LD50 of >300 mg/kg (Umezawa et al., 1997). […] In this experiment, the control mice developed tumors after 9 days.

Series [3] in a line: Glutamate pyruvate transaminase (GPT) liver toxicity in mice. Type of series: in vivo, mouse. The note with it: RMA-grafted mice treated with Roc-Q, Con A or both; normal GPT below 50 U/l. As to the method:
To examine the liver toxicity of Rocaglamide, the activities of GPT were determined from the heparinized blood of mice by test strips Reflotron® GPT as described by the instruction of the manufacture (Roche 10745138). The normal levels of GPT activity should be below 50 U/l.

The test system of series [4] is mouse leukemic RMA T cells. As to the kind of experiment: Activation-induced apoptosis in RMA cells in vitro. Type of series: cell-based. As for the experimental part: (§1) The mouse lymphoma cell line RMA (van Hall et al., 2000), the human leukemic T cell lines DND-41 (contains a p53 mutation), Jurkat J16, Jurkat A3 and Jurkat A3 deficient in FADD (J-FADDdef) (purchased from American Type Culture Collection, ATCC, Manassas, USA) were cultured in RPMI 1640 medium (GIBCO laboratories, Grand Island, N.Y.) supplemented with 10% FCS, 50 μg/ml gentamicin (GIBCO), 6 mM HEPES (GIBCO, 1 M solution), and 2 mM L-glutamine (GIBCO, 200 mM solution) at 37° C. and 5% CO2. T cells were stimulated with either plate-bound αCD3 (OKT3 10 μg/ml) or PMA (5 ng/ml) plus ionomycin (0.5 μM).
(§2) Cells were plated in triplicates and treated for the indicated periods of time at 37° C. with different reagents as described in the figure legends. Rocaglamide derivatives used in this study were isolated from various Aglaia species to at least 98% purity determined by HPLC as reported previously (Schneider et al., 2000). The structures of the compounds were unequivocally elucidated based on their NMR and mass spectra as described before (Schneider et al., 2000). Apoptotic cell death was examined by two parameters: FSC/SSC index of apoptotic-like change in cell size and granularity by FACScan and by analysis of DNA fragmentation (Vermes et al., 2000).

Series [5] deals with leukemia cell line Jurkat. As to the kind of experiment: Apoptosis (FSC/SSC) in Jurkat with TNFα or TRAIL. Type of series: cell-based. The note with it: 24 h. As for the experimental part: (§3) Pancreatic carcinoma cell lines MiaPaca and Capan-1 were treated with Roc-A (50 nM) in combination with different doses of anticancer reagents for 48 h. Apoptotic cell death was determined by Nicoletti (DNA-fragmentation). The leukemia cell line Jurkat was treated with either TNFα (20 ng/ml) or TRAIL (2 ng/ml) in combination with different doses of rocaglamide as indicated for 24 h. Apoptotic cell death was determined by FSC/SSC.

For series [6], the system named is human leukemic DND-41 T cells (p53 mutation). Description: Apoptosis in DND-41 T cells. Type of series: cell-based. As for the experimental part: as §1, §2
Series [7] relates to MiaPaca pancreatic carcinoma cell line. As to the kind of experiment: Apoptosis (Nicoletti) in MiaPaca with anticancer reagents. Type of series: cell-based. Particulars: Roc-A 50 nM with different doses of anticancer reagents, 48 h. As for the experimental part:
as §3

In series [8] the test system is Capan-1 pancreatic carcinoma cell line. As to the kind of experiment: Apoptosis (Nicoletti) in Capan-1 with anticancer reagents. Type of series: cell-based. The note with it: Capan-1, Roc-A 50 nM with different doses of anticancer reagents, 48 h. As to the method: as §3
Series [9] relates to normal peripheral blood T cells. As to the kind of experiment: Activation-induced cell death in normal peripheral blood T cells (day 0, day 6). Type of series: cell-based, human. As for the experimental part: Human peripheral T cells were prepared as described previously (Klas et al., 1993) and were more than 90% CD3 positive. For activation, resting T cells (day 0) were cultured at 2×10^6 cells/ml with 1 μg/ml PHA for 16 h (day 1). Day 1 T cells were then washed three times and cultured for an additional 5 days in the presence of 25 U/ml IL-2 (day 6).
as §2

In series [10] the test system is caspase-8, -9, -3, Bid, PARP. As to the kind of experiment: Western blot of apoptotic pathway proteins in Jurkat T cells. Type of series: cell-based, human. Particulars: 24 h. As for the experimental part:
1×10^6 cells were sedimented and lysed for 15 min in ice-cold lyses buffer (29 mM Tris-HCl, pH 7.4, 137 mM NaCl, 10% (w/v) Glycerin, 1% (v/v) Triton X-100, 2 mM EDTA, 1 mM PMSF, 0.4 mM […], 10 mM NaF, complete protease inhibitor cocktail, Roche). After removing the cell debris by centrifugation at 13,000 rpm for 15 min, equal amounts of proteins were separated on a 12% SDS-PAGE, blotted onto a nitrocellulose membrane (Amersham Biosciences, Little Chalfon, UK) and blocked with 5% non-fat drymilk in PBS/Tween (0.05% Tween-20 in PBS). […]

Series [11] has as its system human leukemic Jurkat T cells. As to the kind of experiment: Apoptosis (FSC/SSC, DNA fragmentation) in Jurkat T cells. Type of series: cell-based. As for the experimental part:
as §1, §2

In series [12] the test system is Hodgkin lymphoma cell line KM-H2. Description: Apoptosis (DNA fragmentation) in KM-H2 cells. Particulars: KM-H2, TRAIL alone, different concentrations, 48 h. Type of series: cell-based, human. As for the experimental part:
(§4) The human malignant cell lines used in this study are: the human leukemic T cell lines CEM and Jurkat (J16), the HTLV-1 ATL derived cell lines SP, MT-2, CHAMP, and ATL-3, and Hodgkin lymphoma derived cell lines L1236 and KM-H2. Human peripheral blood T cells were prepared as described previously (Zhu et al., 2009) and were more than 90% CD3 positive. All cells were cultured in RPMI 1640 medium (GIBCO laboratories, Grand Island, N.Y.) supplemented with 10% FCS, 50 μg/ml gentamicin (GIBCO), 6 mM HEPES (GIBCO, 1 M solution), and 2 mM L-glutamine (GIBCO, 200 mM solution) at 37° C. and 5% CO2.
(§5) Cells were plated in triplicates and treated for the indicated periods of time at 37° C. with different doses of Rocaglamide AR (Roc-AR) (>98% pure, assessed by HPLC) (Proksch et al., 2005), Superkiller-TRAIL (Alexis) or LZ-CD95L (Walczak et al., 1999) alone, or in combinations as indicated in figures. Apoptotic cell death was determined by analysis of DNA fragmentation (% DNA fragmentation) as previously described (Krueger et al., 2006). Specific apoptosis was calculated as (percentage of experimental apoptosis−percentage of spontaneous apoptosis)/(100−percentage of spontaneous apoptosis)×100.

Series [13] concerns Hodgkin lymphoma cell line L1236. As to the kind of experiment: Apoptosis (DNA fragmentation) in L1236 cells. Type of series: cell-based, human. Particulars: L1236, TRAIL alone, different concentrations, 48 h. As to the method:
as §4, §5

Series [14] relates to HTLV-1-associated ATL cell lines SP, MT-2, ATL-3 and CHAMP. As to the kind of experiment: Apoptosis (DNA fragmentation) in HTLV-1-associated ATL cell lines. Type of series: cell-based, human. The note with it: HTLV-1-infected ATL cell lines, TRAIL alone, different concentrations. As for the experimental part: as §4, §5

As for `CNC(=O)C1C(O)C2(O)c3c(OC)cc(OC)cc3OC2(c2ccc(OC)cc2)C1c1ccccc1` (centres unmarked) [Roc-Q], the “dose up to which no toxicity was seen” value in series [1] (Lee et al., 1998) is listed as not above 10 mg/kg body weight. Further, the “acute toxicity LD50” value in series [1] (Umezawa et al., 1997) was more than 300 mg/kg. In addition, the “tumor size and tumor growth rate” value in series [2] (first experiment, 10×10^5 RMA cells, single agent only (Roc-Q 1 mg/kg or Con A 5 mg/kg) i.p. three times per week) is “No significant changes in tumor size and tumor growth rate”. Moreover, the tumor growth result in series [2] (first experiment, Roc-Q 1 mg/kg combined with Con A 5 mg/kg i.p.) is “delayed tumor growth”; in series [2] (second experiment, 2.5×10^5 RMA cells, single agent only (Roc-Q 2.5 mg/kg or Con A 5 mg/kg) i.p.) it was “Significantly delayed tumor growth”. The tumor size entry in [2] (first experiment, Roc-Q 1 mg/kg combined with Con A 5 mg/kg i.p., final day) is given as “reduced tumor sizes”. Further, the body weight loss result in series [2] (mice after treatment with Roc-Q, Con A or both) is “no body weight loss”. Further, in series [2] (second experiment, Roc-Q 2.5 mg/kg combined with Con A 5 mg/kg, except for one mouse), the “tumor progression and tumor growth” value is given as “further inhibition”. Also, the “tumor size and tumor weight” value in [2] (second experiment, Roc-Q alone 2.5 mg/kg) was “reduced tumor sizes and tumor weight”. In addition, in series [3], the “liver toxicity (GPT activity)” value is “No liver toxicity”. In series [4], the “PMA/ionomycin- or Con A-stimulation induced cell death” value is recorded as “enhanced”.

As for `COc1ccc([C@@]23Oc4cc(OC)cc(OC)c4[C@]2(O)[C@H](O)[C@H](C(=O)N(C)C)[C@H]3c2ccccc2)cc1` [rocaglamide], the apoptotic cell death entry in series [5] (TNFα 20 ng/ml with different doses of rocaglamide) and in [5] (TRAIL 2 ng/ml with different doses of rocaglamide) was “synergistically increased the apoptic cell death” in each case.

With Roc-A, the “cell death compared to Jurkat T cells” value in series [6] (DND-41, Roc-A alone) is given as “more resistant”. The apoptotic cell death entry in series [6] (DND-41, combination of Roc-A and PMA/ionomycin stimulation) is listed as “dramatic increase in apoptotic cell death”; in series [7], “synergistically increased the apoptic cell death”; in series [8], “synergistically increased the apoptic cell death”; in series [11] (Jurkat T cells stimulated with αCD3 or PMA/ionomycin in the presence of Roc-A), “dose-dependent increase in apoptotic cell death”; in series [11] (Jurkat, Roc-A 50 nM combined with anti-CD95 antibody αAPO-1, 24 h), “enhanced apoptotic cell death”; in series [11] (Jurkat, Roc-A 50 nM combined with recombinant LZ-CD95L, 24 h), “enhanced apoptotic cell death”. For the same compound, the toxicity result in series [9] (day 0 (resting) T cells, Roc-A alone 50 nM, 48 h) is listed as “no toxicity”. For the same compound, the cell death result in [9] (day 0 T cells, Roc-A 50 nM with PMA/ionomycin, 48 h) is recorded as “did not increase cell death”. Moreover, the PMA/ionomycin-induced cell death result in [9] (day 6 (pre-activated) T cells re-stimulated with PMA/ionomycin, Roc-A 50 nM) is reported as “did not further enhance PMA/ionomycin-induced cell death”. Further, in [10] (Roc-A alone), the “caspase and PARP cleavage (Western blot)” value is “activation of caspase-9 and generation of a detectable amount of the active p17 caspase-3 product and weak PARP cleavage”. Also, the “cleavage of caspase-8 (Western blot)” value in series [10] (Roc-A with T-cell stimulation (PMA/ionomycin)) is recorded as “strongly increased cleavages of caspase-8”. In series [4], the “PMA/ionomycin- or Con A-stimulation induced cell death” value was “enhanced”.

Consider TRAIL, for which the TRAIL-mediated apoptosis entry in series [12] and in series [13] was “completely resistant” throughout. Besides, in [14], the TRAIL-induced apoptosis result is listed as “resistant to TRAIL-induced apoptosis”.

(Values after US9387192B2, “Combination of rocaglamide and apoptosis inducing substances for the treatment of cancer” (DKFZ DEUTCHERS KREBSFORSCHUNGSZENTRUM, priority 2008, dated 2016).)
